Mass density and refractive index data for 1 compound are collected here from the NIST ThermoML archive (doi:10.1016/j.jct.2005.01.004).

For series [1] the following is noted: 298.15 K; 101.33 kPa; Liquid.
A short description of series [2]: refractive index (Na D-line) (dimensionless). Particulars: 298.15 K; 101.33 kPa; Liquid; Standard Abbe refractometry.

Numbers after ± are expanded uncertainties.

Usually mass density stands for mass per unit of volume. The term refractive index denotes a measure of how strongly the sample bends light. As for `CO` [methanol], the mass density in series [1] is recorded as 786.63 ± 0.61 kg/m3. In series [2], the refractive index stood at 1.3264 ± 0.0007.
